Experimental data from ChEMBL document CHEMBL4138123, “Design, synthesis and biological evaluation of novel pyrazolochalcones as potential modulators of PI3K/Akt/mTOR pathway and inducers of apoptosis in breast cancer cells” (Eur J Med Chem, 2017).

How the values were obtained:
Type in all cases: functional
HT-29 [1] = assay: Cytotoxicity against human HT-29 cells assessed as growth inhibition after 48 hrs by sulforhodamine B assay; conditions: HT-29, 48 h
NCI/ADR-RES = assay: Cytotoxicity against human NCI/ADR-RES cells assessed as cell growth at 10 uM after 48 hrs by sulforhodamine B assay relative to control; conditions: read-out: Activity
MDA-MB-468 [2] = assay: Cytotoxicity against human MDA-MB-468 cells assessed as cell growth at 100 uM after 48 hrs by sulforhodamine B assay relative to control; conditions: MDA-MB-468, 48 h, read-out: Activity
SF-268 [3] = assay: Cytotoxicity against human SF268 cells assessed as cell growth at 1 uM after 48 hrs by sulforhodamine B assay relative to control; conditions: SF-268, 48 h, read-out: Activity
K562 = assay: Cytotoxicity against human K562 cells assessed as growth inhibition after 48 hrs by sulforhodamine B assay; conditions: K562, 48 h
HOP-62 [4] = assay: Cytotoxicity against human HOP62 cells assessed as cell growth at 100 uM after 48 hrs by sulforhodamine B assay relative to control; conditions: HOP-62, 48 h, read-out: Activity
Hs-578T = assay: Cytotoxicity against human Hs 578T cells assessed as cell growth at 0.1 uM after 48 hrs by sulforhodamine B assay relative to control; conditions: read-out: Activity
M14 = assay: Cytotoxicity against human M14 cells assessed as cell growth at 1 uM after 48 hrs by sulforhodamine B assay relative to control; conditions: M14, 48 h, read-out: Activity
MDA-MB-231 [5] = assay: Cytotoxicity against human MDA-MB-231 cells assessed as growth inhibition after 48 hrs by sulforhodamine B assay; conditions: MDA-MB-231, 48 h
OVCAR-8 = assay: Cytotoxicity against human OVCAR8 cells assessed as cell growth at 0.1 uM after 48 hrs by sulforhodamine B assay relative to control; conditions: OVCAR-8, 48 h, read-out: Activity
HT-29 [6] = assay: Cytotoxicity against human HT-29 cells assessed as cell growth at 0.01 uM after 48 hrs by sulforhodamine B assay relative to control; conditions: HT-29, 48 h, read-out: Activity
MDA-MB-468 [7] = assay: Cytotoxicity against human MDA-MB-468 cells assessed as cell growth at 0.01 uM after 48 hrs by sulforhodamine B assay relative to control; conditions: MDA-MB-468, 48 h, read-out: Activity
HCC 2998 = assay: Cytotoxicity against human HCC2998 cells assessed as cell growth at 100 uM after 48 hrs by sulforhodamine B assay relative to control; conditions: HCC 2998, 48 h, read-out: Activity
SK-MEL-5 = assay: Cytotoxicity against human SK-MEL-5 cells assessed as growth inhibition after 48 hrs by sulforhodamine B assay; conditions: SK-MEL-5, 48 h
UACC-62 [8] = assay: Cytotoxicity against human UACC62 cells assessed as cell growth at 1 uM after 48 hrs by sulforhodamine B assay relative to control; conditions: UACC-62, 48 h, read-out: Activity
MDA-MB-435 = assay: Cytotoxicity against human MDA-MB-435 cells assessed as cell growth at 100 uM after 48 hrs by sulforhodamine B assay relative to control; conditions: MDA-MB-435, 48 h, read-out: Activity
SF-539 [9] = assay: Cytotoxicity against human SF539 cells assessed as cell growth at 1 uM after 48 hrs by sulforhodamine B assay relative to control; conditions: SF-539, 48 h, read-out: Activity
Malme-3M = assay: Cytotoxicity against human MALME-3M cells assessed as cell growth at 1 uM after 48 hrs by sulforhodamine B assay relative to control; conditions: read-out: Activity
MDA-MB-231 [10] = assay: Cytotoxicity against human MDA-MB-231 cells assessed as cell growth at 10 uM after 48 hrs by sulforhodamine B assay relative to control; conditions: MDA-MB-231, 48 h, read-out: Activity
SF-268 [11] = assay: Cytotoxicity against human SF268 cells assessed as cell growth at 10 uM after 48 hrs by sulforhodamine B assay relative to control; conditions: SF-268, 48 h, read-out: Activity
NCI-H522 = assay: Cytotoxicity against human NCI-H522 cells assessed as cell growth at 1 uM after 48 hrs by sulforhodamine B assay relative to control; conditions: NCI-H522, 48 h, read-out: Activity
HOP-62 [12] = assay: Cytotoxicity against human HOP62 cells assessed as cell growth at 0.1 uM after 48 hrs by sulforhodamine B assay relative to control; conditions: HOP-62, 48 h, read-out: Activity
HL-60(TB) = assay: Cytotoxicity against human HL-60(TB) cells assessed as cell growth at 1 uM after 48 hrs by sulforhodamine B assay relative to control; conditions: HL-60, 48 h, read-out: Activity
UACC-62 [13] = assay: Cytotoxicity against human UACC62 cells assessed as cell growth at 10 uM after 48 hrs by sulforhodamine B assay relative to control; conditions: UACC-62, 48 h, read-out: Activity
SW-620 = assay: Cytotoxicity against human SW620 cells assessed as cell growth at 1 uM after 48 hrs by sulforhodamine B assay relative to control; conditions: SW-620, 48 h, read-out: Activity
OVCAR-4 = assay: Cytotoxicity against human OVCAR4 cells assessed as cell growth at 10 uM after 48 hrs by sulforhodamine B assay relative to control; conditions: OVCAR-4, 48 h, read-out: Activity
DU-145 = assay: Cytotoxicity against human DU145 cells assessed as cell growth at 0.1 uM after 48 hrs by sulforhodamine B assay relative to control; conditions: DU-145, 48 h, read-out: Activity
MDA-MB-231 [14] = assay: Cytotoxicity against human MDA-MB-231 cells assessed as cell growth at 0.1 uM after 48 hrs by sulforhodamine B assay relative to control; conditions: MDA-MB-231, 48 h, read-out: Activity
A549 = assay: Cytotoxicity against human A549/ATCC cells assessed as cell growth at 10 uM after 48 hrs by sulforhodamine B assay relative to control; conditions: A549, 48 h, read-out: Activity
SF-268 [15] = assay: Cytotoxicity against human SF268 cells assessed as cell growth at 100 uM after 48 hrs by sulforhodamine B assay relative to control; conditions: SF-268, 48 h, read-out: Activity
RPMI-8226 = assay: Cytotoxicity against human RPMI8226 cells assessed as cell growth at 0.1 uM after 48 hrs by sulforhodamine B assay relative to control; conditions: RPMI-8226, 48 h, read-out: Activity
SK-MEL-28 = assay: Cytotoxicity against human SK-MEL-28 cells assessed as cell growth at 0.01 uM after 48 hrs by sulforhodamine B assay relative to control; conditions: SK-MEL-28, 48 h, read-out: Activity
SF-539 [16] = assay: Cytotoxicity against human SF539 cells assessed as cell growth at 10 uM after 48 hrs by sulforhodamine B assay relative to control; conditions: SF-539, 48 h, read-out: Activity
RXF 393 = assay: Cytotoxicity against human RXF393 cells assessed as cell growth at 0.01 uM after 48 hrs by sulforhodamine B assay relative to control; conditions: RXF 393, 48 h, read-out: Activity
MDA-MB-231 [17] = assay: Cytotoxicity against human MDA-MB-231 cells assessed as cell growth at 100 uM after 48 hrs by sulforhodamine B assay relative to control; conditions: MDA-MB-231, 48 h, read-out: Activity
ACHN = assay: Cytotoxicity against human ACHN cells assessed as cell growth at 0.01 uM after 48 hrs by sulforhodamine B assay relative to control; conditions: read-out: Activity

Structure (SMILES)	LC50 (HT-29 [1])	TGI (HT-29 [1])	growth at 10 µM (NCI/ADR-RES)	growth at 100 µM (MDA-MB-468 [2])	growth at 1 µM (SF-268 [3])	LC50 (concentration killing 50% of cells) (K562)	TGI (K562)	growth at 100 µM (HOP-62 [4])	growth at 0.1 µM (Hs-578T)	growth at 1 µM (M14)	LC50 (MDA-MB-231 [5])	TGI (MDA-MB-231 [5])	growth at 0.1 µM (OVCAR-8)	growth at 0.01 µM (HT-29 [6])	growth at 0.01 µM (MDA-MB-468 [7])	growth at 100 µM (HCC 2998)	LC50 (concentration killing 50% of cells) (SK-MEL-5)	TGI (SK-MEL-5)	growth at 1 µM (UACC-62 [8])	growth at 100 µM (MDA-MB-435)	further results
COc1cc(-c2cc(/C=C/C(=O)c3ccc4c(c3)OCO4)[nH]n2)cc(OC)c1OC	9.48 µM	4.55 µM	23%	-85%	90%	> 100 µM	9.81 µM	-70%	98%	100%	> 100 µM	> 100 µM	99%	99%	90%	-50%	> 100 µM	> 100 µM	99%	4%	growth at 1 µM (SF-539 [9]): 86%; growth at 1 µM (Malme-3M): 94%; growth at 10 µM (MDA-MB-231 [10]): 20%; growth at 10 µM (SF-268 [11]): 5%; growth at 1 µM (NCI-H522): 52%; growth at 0.1 µM (HOP-62 [12]): 100%; growth at 1 µM (HL-60(TB)): 86%; growth at 10 µM (UACC-62 [13]): 26%; growth at 1 µM (SW-620): 88%; growth at 10 µM (OVCAR-4): 27%; growth at 0.1 µM (DU-145): 102%; growth at 0.1 µM (MDA-MB-231 [14]): 103%; growth at 10 µM (A549): 26%; growth at 100 µM (SF-268 [15]): -26%; growth at 0.1 µM (RPMI-8226): 83%; growth at 0.01 µM (SK-MEL-28): 100%; growth at 10 µM (SF-539 [16]): -27%; growth at 0.01 µM (RXF 393): 95%; growth at 100 µM (MDA-MB-231 [17]): 21%; growth at 0.01 µM (ACHN): 108%
COc1ccc(C(=O)/C=C/c2cc(-c3cc(OC)c(OC)c(OC)c3)n[nH]2)cc1OC	5.75 µM	3.05 µM	10%	-87%	89%	> 100 µM	7.12 µM	-98%	99%	94%	6.32 µM	3.06 µM	92%	100%	89%	-86%	5.59 µM	3.03 µM	95%	-73%	growth at 1 µM (SF-539 [9]): 67%; growth at 1 µM (Malme-3M): 106%; growth at 10 µM (MDA-MB-231 [10]): -82%; growth at 10 µM (SF-268 [11]): -60%; growth at 1 µM (NCI-H522): -63%; growth at 0.1 µM (HOP-62 [12]): 100%; growth at 1 µM (HL-60(TB)): 67%; growth at 10 µM (UACC-62 [13]): -92%; growth at 1 µM (SW-620): 70%; growth at 10 µM (OVCAR-4): 23%; growth at 0.1 µM (DU-145): 101%; growth at 0.1 µM (MDA-MB-231 [14]): 101%; growth at 10 µM (A549): -43%; growth at 100 µM (SF-268 [15]): -88%; growth at 0.1 µM (RPMI-8226): 79%; growth at 0.01 µM (SK-MEL-28): 97%; growth at 10 µM (SF-539 [16]): -94%; growth at 0.01 µM (RXF 393): 100%; growth at 100 µM (MDA-MB-231 [17]): -84%; growth at 0.01 µM (ACHN): 101%
